Assay results reported in ChEMBL document CHEMBL1157539, “Thousands of chemical starting points for antimalarial lead identification” (Nature, 2010).

These molecules were tested on Plasmodium falciparum (assay: GSK_TCMDC: Inhibition of Plasmodium falciparum 3D7 in whole erythrocytes, using parasite LDH activity as an index of growth.). Conditions: Plasmodium falciparum, 3D7.
Format: functional, organism-based

| Compound | XC50 [nM] |
| --- | --- |
| COc1ccc2nc(-c3ccccc3)cc(N/N=C/c3ccc([N+](=O)[O-])cc3)c2c1 | 149 |
| O=C(Nc1ccc(Br)c(C(F)(F)F)c1)c1cccc([N+](=O)[O-])c1 | 914 |
| CCCCC1(NC(=O)[C@@H](Nc2ccc(C#N)c3ccccc23)C2CCCCC2)CCCCC1 | 1120 |
| Cc1c(-c2ccc(C(=O)NC3CC(C)(C)NC(C)(C)C3)cc2)[nH]c2cc(Cl)c(Cl)cc12 | 751 |
| CC1CCCC(NC(=O)CCOc2ccccc2)C1 (configuration not stated) | 882 |
| O=C(NCCCCN1CCCC2c3cccc(O)c3CCC21)c1ccc(-c2ccccc2)cc1 (configuration not stated) | 1170 |
| CCOCCCn1c(=N)c(C(=O)NCc2ccc(OC)cc2)cc2c(=O)n3cccc(C)c3nc21 | 1060 |
| COc1cccc2cc(C(=O)N[C@@H](CC(C)C)C(=O)N[C@H](C=NN3CCOC3=O)Cc3ccccc3)oc12 | 686 |
| CC(C)(C)NC(=O)c1ccc(Oc2ccc(OC(F)(F)F)cc2)c(NC(=O)C(C)(C)C)c1 | 977 |
| O=c1cc(NCCCNCc2cc(C(F)(F)F)ccc2Cl)[nH]c2ccccc12 | 1020 |
| Fc1ccc2[nH]c(-c3ccc(-c4cccc(CN5CCN(c6ccncc6)CC5)c4)cc3)nc2c1 | 85.7 |
| CN1CCN(Cc2ccc(-c3ccc4c(Nc5cc(O)c(Cl)cc5F)ccnc4c3)o2)CC1 | 110 |
| CN(CCCNCc1cccc2ccccc12)CCCNCc1cccc2ccccc12 | 722 |
| O=C(Nc1cccc(CN2CCCN(CC3CC3)CC2)c1)c1ccc(-c2ccccc2)cc1 | 930 |
| CN(CCCCNC(=O)c1cc2ccccc2[nH]1)C1CC2(CCN(C(=O)OC(C)(C)C)CC2)c2ccccc21 (configuration not stated) | 928 |
| Cc1cc(C(F)(F)F)nn1-c1ccc(NC(=O)c2ccco2)cc1 | 734 |
| CC[C@H](NC(=O)c1c(N)c(-c2sccc2Cl)nc2ccccc12)c1ccccc1 | 912 |
| C/N=C(/Nc1c(Cl)cccc1Cl)N(C)C | 820 |
| CC(=O)Nc1cccc(C(=O)Nc2ccc(-c3cccc(-c4nc5cc(F)ccc5[nH]4)c3)cc2)c1 | 633 |
| Cc1cc(O)c(-c2ccc(OCc3ccc(Cl)cc3)cc2)c(C)n1 | 732 |
| OCCNc1nc(Nc2cccc(O)c2)nc2ccccc12 | 389 |
| CCCCc1cc(NCC)nc(Nc2cccc(OC)c2)n1 | 922 |
| O=S(=O)(NCCN1CCCC1)c1ccc(-c2cccc(CNC3Cc4ccccc4C3)c2)s1 | 746 |
| COc1ccc2[nH]c(C)cc(=NN=Cc3cc(OC)c(OC)cc3OC)c2c1 | 739 |
| CN1CCN(CCc2ccc3nc(-c4csc(Cc5cc(Cl)ccc5OCc5ccccc5)n4)[nH]c3c2)CC1 | 750 |

| Compound | XC50 [nM] |
| --- | --- |
| O=[N+]([O-])c1ccc2c(c1)c1ccccc1n2Cc1ccccc1O | 1110 |
| FC(F)(F)c1ccc(-c2ccc(CNC3CCN(CCN4CCOCC4)CC3)cc2)cc1 | 756 |
| CC(C)Oc1ccc(N2CCN(CCCCNC(=O)c3ccc(NC(=O)c4ccc(Cl)cc4)cc3)CC2)c(OC(C)C)c1 | 512 |
| CCOc1cc2c(cc1OCC)C(c1cc(OC)c(O)cc1Cl)NCC2 (configuration not stated) | 748 |
| COc1cc(NC(=O)Nc2ccnc3ccccc23)cc(OC)c1 | 469 |
| CN(C)c1ccc(CN2CCC(CNC(=O)c3cc(-c4ccccc4Cl)cs3)C2)cc1 (configuration not stated) | 1440 |
| CCCc1cc(NC2CCN(C)CC2)nc(Nc2ccc(F)cc2)n1 | 801 |
| O=C(NCCCCN1CCC(c2ccc3c(c2O)CCCC3)CC1)c1ccc(NC(=O)c2ccc(Cl)cc2)cc1 | 243 |
| COc1cccc2c(NN=Cc3cccc(Cl)c3)ccnc12 | 838 |
| O=C(NC1CCCCC1)N(Cc1ccccc1-c1ccc(CNCCc2ccccc2)cc1)C1CCN(Cc2ccccc2)CC1 | 930 |
| CC(C)(C)c1cc(NC2CC2)nc(-c2ccccn2)n1 | 719 |
| O=C(Nc1ccc(-c2ccccc2)s1)N[C@H]1CCN(Cc2ccc(OCCCN3CCCCC3)cc2)C1 | 742 |
| COCCNCc1ccc(-c2ccc(CNc3ccc4ncccc4c3)cc2)cc1 | 1040 |
| Cc1ccc(OC2CCN(CCCCC3(C)C(=O)Nc4ccccc43)CC2)cc1 (configuration not stated) | 743 |
| COc1ccc(NC(=O)[C@H](CC(C)C)Nc2cc(C)nc(NCc3ccccc3C)n2)cc1 | 888 |
| COc1cc(C(=O)NCCCN2CCN(c3cc(Cl)ccc3OC)CC2)ccc1-c1nc2cc(Cl)c(Cl)cc2[nH]1 | 731 |
| O=C1NC(=O)C(c2ccc(Cl)cc2)=C1Nc1cccc(S(=O)(=O)C(F)(F)F)c1 | 744 |
| Cc1sc(N2CCCCC2)nc1C(=O)Nc1ccc(F)cc1C(F)(F)F | 1150 |
| CCCCN(CCCC)CCCN(CCCN(CCCC)CCCC)c1cc(C)nc(Nc2ccc(Cl)cc2)n1 | 370 |
| Cc1cc(N[C@@H](Cc2ccccc2)C(=O)NCc2cccs2)nc(NCCc2ccccn2)n1 | 1280 |
| O=C(CCc1ccco1)NC1CCN(CC2(c3ccc(Cl)cc3)CCC2)CC1 | 1450 |
| COC(=O)Nc1cc(C(F)(F)F)ccc1N1CCC(CNS(=O)(=O)c2ccc(OC)cc2)CC1 | 249 |
| CCN(CC)c1nc(Nc2cc(C)ccc2C)nc(Nc2ccccc2O)n1 | 641 |
| Cc1noc(-c2ccc3c(c2)CCN(CCC2CCC(NC(=O)c4cc5ccccc5[nH]4)CC2)CC3)n1 (configuration not stated) | 689 |
| COc1ccccc1C1CCN(C2CCC(NC(=O)c3cc4ccccc4[nH]3)CC2)CC1 (configuration not stated) | 1210 |

| Compound | XC50 [nM] |
| --- | --- |
| Cc1cccc(-c2nc(Nc3ccncc3)c3ccc([N+](=O)[O-])cc3n2)n1 | 831 |
| O=C(C=Cc1ccc(Br)cc1)NC1CCC(CN2CCC(c3c[nH]c4ccccc34)CC2)CC1 (configuration not stated) | 682 |
| Cn1cnc(CCNC(=O)c2ccc(-c3cccc(-c4nc5cc(C(F)(F)F)ccc5[nH]4)c3)cc2)c1 | 726 |
| Cc1cc(N2CCCC2)nc(Nc2ccc(NC(=O)COc3ccccc3)cc2)n1 | 647 |
| Cc1nc(C)c(-c2ccc(Oc3cccc(OC(F)(F)F)c3)cc2)c(O)c1Cl | 684 |
| COc1ccc2nccc([C@@H](O)CN3CCC(NCc4ccc5scnc5c4)CC3)c2c1 | 399 |
| CCCCc1cc(NC2CCN(C)CC2)nc(Nc2ccccc2)n1 | 658 |
| COC(=O)c1cccc(CN(CCC(O)(C(F)(F)F)C(F)(F)F)C(=O)CC2CCCC2)c1 | 909 |
| CCn1c(C)cc(C=C2SC(=Nc3ccccc3)NC2=O)c1C | 680 |
| COc1c(C2CCN(CCCCNC(=O)c3ccc(NC(=O)c4ccc(C#N)cc4)cc3)CC2)ccc2c1CCCC2 | 292 |
| COc1cccc(C(=O)C2CC2CN(C)CC(O)c2cc(C)c(OC)cc2C)c1 (configuration not stated) | 1140 |
| O=C(/C=C/c1ccc(F)cc1)NC1CCC(CCN2CCc3ccccc3CC2)CC1 (configuration not stated) | 1400 |
| C[C@H](Cc1ccc(OCCCOc2ccc(C[C@@H](C)NC[C@H](O)c3cccc(Cl)c3)cc2)cc1)NC[C@H](O)c1cccc(Cl)c1 | 780 |
| CS(=O)(=O)N1CC2(CCN(CCC(NC(=O)NCc3ccccc3Cl)c3ccc(Cl)c(Cl)c3)CC2)c2ccccc21 (configuration not stated) | 1110 |
| O=C(NC1CC1)c1ccc(N2CCC(Cc3ccccc3)CC2)c([N+](=O)[O-])c1 | 614 |
| C[C@@H]1CN(C(c2cccc(O)c2)c2cccc(C(=O)N(C)c3cccc(F)c3)c2)[C@@H](C)CN1C(c1cccc(O)c1)c1cccc(C(=O)N(C)c2cccc(F)c2)c1 (some centres not stated) | 918 |
| CCOC(=O)c1c(NC(NC(=O)c2ccc(C(C)(C)C)cc2)C(Cl)(Cl)Cl)sc2c1CCCC2 (configuration not stated) | 809 |
| O=C(Cn1c(CCc2cccc(F)c2F)cc(=O)c2cccnc21)N(CCCn1ccnc1)Cc1ccc(-c2ccc(C(F)(F)F)cc2)cc1 | 797 |
| O=C(CSc1nnc(-c2ccccc2Br)[nH]1)c1c[nH]c2ccccc12 | 982 |
| CCNc1cc(C(=O)N[C@@H](Cc2ccccc2)[C@H](O)CNCCc2cc(OC)cc(OC)c2)cc(N2CCCCS2(=O)=O)c1 | 1140 |
| CC(C)c1ccc(CN2CCC(NC(=O)c3ccc(-c4ccccc4F)s3)CC2)cc1 | 1550 |
| C/C=C1\CN2CC[C@H]1C[C@@H]2[C@@H](O)c1ccnc2ccc(O)cc12 | 245 |
| Nc1ncnc2cc(-c3cccc(S(N)(=O)=O)c3)sc12 | 151 |
| Nc1nc(N)c2c(ccc3c2ccn3Cc2ccccc2)n1 | 3.2 |
| O=C(/C=C/c1ccc(Cl)c(Cl)c1)NCCCCCCN1CCCN(C(=O)Nc2cc(F)cc(F)c2)CC1 | 708 |

| Compound | XC50 [nM] |
| --- | --- |
| CC1CCN(CC[C@H]2CCCN2S(=O)(=O)c2cccc(NC(=O)c3cc4ccccc4s3)c2)CC1 | 830 |
| Cc1cc(C2NC(=O)c3ccccc3N2)c(C)n1-c1ccc2c(c1)OCO2 (configuration not stated) | 731 |
| Cc1cc(-c2cccc(CNCCc3ccc(Cl)cc3)c2)cnc1N | 1100 |
| Cc1cc(-c2ccc(CNCc3ccc(F)cc3)cc2)ccc1S(=O)(=O)NCCN1CCCC1 | 719 |
| CN1CCN(c2ccnc3ccc(NC(=O)Nc4ccc(Cl)cc4)cc23)CC1 | 112 |
| COc1cccc(CN(C(=O)Nc2ccccc2F)[C@H]2C[C@H]3C(=O)Nc4cc(F)ccc4C(=O)N3C2)c1 | 841 |
| COC(=O)c1cccc(N2CCN(CCCNC(=O)/C(=C/C=C/c3cc4cc(Cl)c(Cl)cc4[nH]3)OC)CC2)c1 | 667 |
| COc1ccc2nccc(N(C)CC3(O)CCC(NCc4ccc5c(n4)NC(=O)CS5)CC3)c2n1 (configuration not stated) | 700 |
| OC1CCC(Nc2ccc3ncc(-c4ccc(Cl)cc4)n3n2)CC1 (configuration not stated) | 824 |
| CCc1cc(-c2onc(C(F)(F)F)c2-c2ccccc2)c(O)cc1OC | 787 |
| CCCN1CCN(c2cc(NCC)c3c4c(onc24)-c2ccccc2C3=O)CC1 | 1060 |
| O=C(Nc1ccc2c(c1)CCN(C1CCC1)CC2)c1ccc(-c2cn3ccccc3n2)cc1 | 879 |
| COc1cc(NC(=O)c2nn(CCCN3CCC4(CC3)C(=O)NCN4c3ccccc3)cc2-c2ccc(Cl)c(Cl)c2)cc(OC)c1OC | 753 |
| COc1ccc(Nc2nccc(N3CCC(NC(=O)c4cc5ccccc5s4)C3)n2)cc1 (configuration not stated) | 759 |
| N#Cc1cccc(NC(=O)c2cccc(S(=O)(=O)NC3CCN(CC4CCCCC4)C3)c2)c1 (configuration not stated) | 578 |
| CC(=O)c1cccc2c(NC(=O)Nc3ccc4nccc(N5CCN(C)CC5)c4c3)cccc12 | 400 |
| O=C(NCc1ccc(F)cc1)Nc1ccc(-c2ccc(-c3nc4ccccc4[nH]3)cc2)cc1 | 90.7 |
| O=C(Nc1cccc(-c2ccc(CN3CCCC3)cc2)c1)c1ccc(Cl)cc1 | 427 |
| Cc1cccc2sc(N(CCCn3ccnc3)C(=O)C=Cc3cccs3)nc12 | 1280 |
| CCCCCCn1c(Sc2ccc(C#N)c([N+](=O)[O-])c2)nnc1-c1ccc(OC)cc1 | 849 |
| Cc1cc(F)ccc1[C@H]1C[C@H](N2CCOCC2)CCN1C(=O)N(C)[C@@H](C)c1cc(C(F)(F)F)cc(C(F)(F)F)c1 | 764 |
| CC(OC(=O)c1ccc(C(=O)NCC2CC2)cc1)C(C)(C)C (configuration not stated) | 791 |
